Consider 22 molecules from patent publication US20110071158A1, “NEW COMPOUNDS” (BOEHRINGER INGELHEIM INTERNATIONAL GMBH, priority 2009, published 2011).

As usually defined, the IC50 is the concentration that inhibits the measured activity by half.

SMILES strings stand for the structures.

T1 sequence (Q05397 whole entry): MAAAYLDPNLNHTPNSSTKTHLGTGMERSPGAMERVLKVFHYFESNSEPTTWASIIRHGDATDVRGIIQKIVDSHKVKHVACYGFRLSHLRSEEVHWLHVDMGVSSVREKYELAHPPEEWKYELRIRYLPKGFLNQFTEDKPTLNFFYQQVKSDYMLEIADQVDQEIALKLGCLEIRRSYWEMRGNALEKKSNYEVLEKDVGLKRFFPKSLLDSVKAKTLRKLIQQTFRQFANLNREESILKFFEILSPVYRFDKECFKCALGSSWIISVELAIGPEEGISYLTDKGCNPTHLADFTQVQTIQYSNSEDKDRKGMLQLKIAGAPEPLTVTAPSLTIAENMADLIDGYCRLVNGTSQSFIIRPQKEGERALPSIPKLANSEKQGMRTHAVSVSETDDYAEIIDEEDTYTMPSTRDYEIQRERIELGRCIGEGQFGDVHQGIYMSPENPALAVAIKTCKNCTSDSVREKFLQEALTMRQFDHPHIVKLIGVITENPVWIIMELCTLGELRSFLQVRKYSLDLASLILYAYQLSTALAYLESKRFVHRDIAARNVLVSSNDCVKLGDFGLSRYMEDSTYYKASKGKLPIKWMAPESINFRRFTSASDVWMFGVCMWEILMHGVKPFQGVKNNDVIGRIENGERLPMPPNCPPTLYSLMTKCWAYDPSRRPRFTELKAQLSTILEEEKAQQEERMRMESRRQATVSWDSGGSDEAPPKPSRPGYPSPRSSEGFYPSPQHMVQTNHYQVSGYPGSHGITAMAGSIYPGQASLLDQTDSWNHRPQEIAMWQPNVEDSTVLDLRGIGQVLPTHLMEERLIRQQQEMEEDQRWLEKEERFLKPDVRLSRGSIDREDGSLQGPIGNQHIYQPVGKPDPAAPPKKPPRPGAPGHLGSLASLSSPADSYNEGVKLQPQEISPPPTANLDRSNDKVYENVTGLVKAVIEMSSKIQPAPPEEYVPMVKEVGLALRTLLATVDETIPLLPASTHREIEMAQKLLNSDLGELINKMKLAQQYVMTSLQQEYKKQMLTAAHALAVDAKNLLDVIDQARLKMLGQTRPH

One assay has as its target T1, PTK2 enzyme (Homo sapiens, UniProt Q05397).
T1 construct: purchased Invitrogen PV3832
Nature of the assay: PTK2 enzyme test, Assay 1 (DELFIA, poly-Glu-Tyr substrate, antibody PT60). The class given is biochemical. The settings on record: Assay 1 (values without *); 1 h pre-incubation, 2% DMSO. The method, boiled down:
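Active PTK2 (0.01 µg/well) preincubated 1 h at RT with compound (duplicates, 2% DMSO final), then reacted 1 h at RT with poly(Glu,Tyr) 4:1 plus biotinylated poly(Glu,Tyr) and an ATP mix containing 50 μM ATP. EDTA-stopped, streptavidin-captured product detected by Eu-PT60 anti-phosphotyrosine DELFIA; IC50 by variable-Hill sigmoid fit.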
In turn, `CCN([C@@H]1CCCC[C@H]1Nc1nc(Nc2ccc(C(=O)NC3CCN(C)CC3)cc2OC)ncc1C(F)(F)F)S(C)(=O)=O` [Example I-91] showed a concentration for half-maximal inhibition (IC50) of 1000 pM. The same measure, in the same setting: the value for `COc1cc(C(=O)NC2CCN(C)CC2)ccc1Nc1ncc(C(F)(F)F)c(N[C@@H]2CCCC[C@H]2N(C)S(C)(=O)=O)n1` [Example I-90, 4-{4-[(1R,2R)-2-(methanesulphonyl-methyl-amino)-cyclohexylamino]-5-trifluoromethyl-pyrimidin-2-ylamino}-3-methoxy-N-(1-methyl-piperidin-4-yl)-benzamide] was 800 pM. Same read-out and setting: with `COc1cc(CN(C)C)ccc1Nc1ncc(C(F)(F)F)c(N[C@@H]2CCCC[C@H]2NC(C)=O)n1` [Example I-118] the figure was 1000 pM.

Molecule `CNCc1ccc(Nc2ncc(C(F)(F)F)c(N[C@@H]3CCCC[C@H]3NC(C)=O)n2)c(OC)c1` [Example I-76] gave a concentration for half-maximal inhibition (IC50) of 1000 pM. In the case of `CON[C@@H]1CCCC[C@H]1Nc1nc(Nc2ccc(C(=O)NC3CCN(C)CC3)cc2OC)ncc1C(F)(F)F` [Example I-119], the half-maximal inhibitory concentration (IC50) was determined as 6000 pM. The same measure, in the same setting: with `COc1cc(C(=O)NC2CCCN(C)C2)c(F)cc1Nc1ncc(C(F)(F)F)c(N[C@@H]2CCCC[C@H]2NC(C)=O)n1` (stereo partly drawn) [Example I-88] the figure was 2000 pM.

Another assay concerns the target T1, PTK2 enzyme. The experiment in a line: PTK2 enzyme test, Assay 2 (DELFIA, poly-Glu-Tyr substrate, antibody PT66). The class given is biochemical. The settings on record: Assay 2 (values marked *); 1 h pre-incubation, 0.5% DMSO. The text has this:
This test uses active PTK2 enzyme (Invitrogen Code PV3832) and poly-Glu-Tyr (4:1, Sigma P-0275) as the kinase substrate. The kinase activity is detected by means of the phosphorylation of the substrate in a DELFIA™ assay. The phosphorylated substrate is detected with the europium-labelled phosphotyrosine antibody PT66 (Perkin Elmer, No.: AD0040).
In order to determine concentration-activity curves with PTK2-inhibitors the compounds are serially diluted first of all in 10% DMSO/H2O and then in kinase dilution buffer (20 mM TRIS/HCl pH 7.5, 0.1 mM EDTA, 0.1 mM EGTA, 0.286 mM sodium orthovanadate, 10% glycerol with the addition of freshly prepared BSA (fraction V, 1 mg/mL) and DTT (1 mM)) and 10 μL of each dilution are dispensed per well in a 96-well microtitre plate (clear U-shaped base plate, Greiner No. 650101) (the inhibitors are tested in duplicates) and mixed with 10 μL/well of PTK2 kinase (0.01 μg/well). PTK2 kinase is diluted accordingly beforehand with kinase dilution buffer. The diluted PTK2 inhibitor and the PTK2 kinase are pre-incubated for 1 h at RT and shaken at 500 revolutions per min. Then 10 μL/well poly-Glu-Tyr substrate (25 μg/well poly-Glu-Tyr, 0.05 μg/well biotinylated poly-Glu-Tyr dissolved in 250 mM TRIS/HCl pH 7.5, 9 mM DTT) are added. The reaction is started by the addition of 20 μL of ATP Mix (30 mM TRIS/HCl pH 7.5, 0.02% Brij, 0.2 mM sodium orthovanadate, 10 mM magnesium acetate, 0.1 mM EGTA, 1× phosphatase inhibitor cocktail 1 (Sigma, No.: P2850), 50 μM ATP (Sigma, No.: A3377; 15 mM stock solution))—the final concentration of DMSO is 0.5%. After 1 h kinase reaction (the plates are shaken at 500 rpm), the reaction is stopped by the addition of 12 μL/well of 100 mM EDTA, pH 8, and shaken for a further 5 min at RT (500 U/min). 55 μL of the reaction mixture are transferred into a streptavidin plate (Strepta Well High Bind (transparent, 96-well) made by Roche, No.: 11989685001) and incubated for 1 h at RT (shaking at 500 rpm). Then the microtitre plate is washed five times with 200 μL/well D-PBS (Invitrogen, No. 14190). 100 μL of a solution containing DELFIA Eu-N1 Anti-Phosphotyrosine PT66 antibody (Perkin Elmer, No.: AD0040, diluted 1:9000 in DELFIA test buffer (Perkin Elmer, No.: 1244-111)) is then added and it is incubated for 1 h at RT (shaking at 500 rpm). Then the plate is washed five times with 200 μL/well DELFIA washing buffer (Perkin Elmer, No.: 1244-114), 200 μL/well strengthening solution (Perkin Elmer, No.: 1244-105) is added and the whole is incubated for 10 min at RT (shaking at 300 rpm).
The time-delayed europium fluorescence is then measured in a microtitre plate reader (Victor, Perkin Elmer). The positive control consists of wells that contain solvent (0.5% DMSO in test buffer) and display uninhibited kinase activity. Wells that contain test buffer instead of enzyme act as a control for the background kinase activity.
The IC50 values are determined from concentration-activity analyses by iterative calculation using a sigmoid curve analysis algorithm (FIFTY, based on Graph PAD Prism Version 3.03) with a variable Hill coefficient.
`COc1ccc(NC(=O)[C@@H]2CCCN2C)cc1Nc1ncc(Cl)c(N[C@@H]2CCCC[C@H]2N(C)S(C)(=O)=O)n1` [Example I-191] came in with a concentration for half-maximal inhibition (IC50) of 10000 pM. Same read-out and setting: the value for `COCCNC(=O)c1ccc(OC)c(Nc2ncc(C(F)(F)F)c(N[C@@H]3CCCC[C@H]3NS(C)(=O)=O)n2)c1` [Example I-181] was 430 pM; that for `CCc1cc(Nc2ncc(C(F)(F)F)c(N[C@@H]3CCCC[C@H]3N(C)S(C)(=O)=O)n2)c(OC)cc1N1CCN(C)CC1` [Example I-160] was 710 pM; that for `COc1cc(N2CCN(C(C)(C)C)CC2)c(C)cc1Nc1ncc(Cl)c(N[C@@H]2CCCC[C@H]2N(C)S(C)(=O)=O)n1` [Example I-184] was 1000 pM. The same measure, in the same setting: with `COc1cc(N2CCN(C(C)(C)C)CC2)c(Cl)cc1Nc1ncc(Cl)c(N[C@@H]2CCCC[C@H]2N(C)S(C)(=O)=O)n1` [Example I-185] the figure was 1000 pM; with `COc1cc(NC(C)=O)c(F)cc1Nc1ncc(C(F)(F)F)c(N[C@@H]2CCCC[C@H]2N(C)S(C)(=O)=O)n1` [Example I-159], 900 pM; with `COc1ccc(NC(=O)C2CCN(C)CC2)cc1Nc1ncc(Cl)c(N[C@@H]2CCCC[C@H]2N(C)S(C)(=O)=O)n1` [Example I-192], 2000 pM.

As for `COc1ccc(C(=O)N(C)C2CCN(C)CC2)cc1Nc1ncc(C(F)(F)F)c(N[C@@H]2CCC[C@H]2N(C)S(C)(=O)=O)n1` [Example I-176], 440 pM corresponded to half-maximal inhibition (IC50).

`COc1cc(N2CCN(C)CC2)c(Cl)cc1Nc1ncc(C(F)(F)F)c(N[C@@H]2CCC[C@H]2N(C)S(C)(=O)=O)n1` [Example I-139] displayed a concentration for half-maximal inhibition (IC50) of 490 pM.

In turn, `COc1cc(C(=O)NC2CCN(C)CC2)ccc1Nc1ncc(C(F)(F)F)c(N[C@@H]2CC=CC[C@H]2N(C)S(C)(=O)=O)n1` [Example I-151] had a 50% inhibitory concentration (IC50) of 670 pM.

`COCCN1CCC(NC(=O)c2cc(OC)c(Nc3ncc(C(F)(F)F)c(N[C@@H]4CCC[C@H]4N(C)S(C)(=O)=O)n3)cc2F)CC1` [Example I-130]: the IC50 was found to be 240 pM. Same read-out and setting: the value for `COc1ccc(C(=O)NC2CCN(C)CC2)cc1Nc1ncc(C(F)(F)F)c(N[C@@H]2CCCC[C@H]2NC(C)=O)n1` [Example I-180] was 430 pM. On the same count and under the same terms, with `COc1cc(F)c(C(=O)NC2CCOCC2)cc1Nc1ncc(C(F)(F)F)c(N[C@@H]2CCCC[C@H]2NS(C)(=O)=O)n1` [Example I-193] the figure was 720 pM. The same measure, in the same setting: the value for `COc1ccc(C(=O)NC2CCN(C)CC2)cc1Nc1ncc(Cl)c(N[C@@H]2CCC[C@H]2N(C)S(C)(=O)=O)n1` [Example I-179] was 460 pM; that for `COc1cc(C(=O)NN2CCN(C)CC2)c(F)cc1Nc1ncc(C(F)(F)F)c(N[C@@H]2CCC[C@H]2N(C)S(C)(=O)=O)n1` [Example I-136] was 280 pM; that for `CNC(=O)c1cc(Nc2ncc(C(F)(F)F)c(N[C@@H]3CCCC[C@H]3NS(C)(=O)=O)n2)c(OC)cc1F` [Example I-194] was 710 pM.

The target of another assay is T2, Xenopus laevis Aurora B/INCENP complex (Xenopus laevis, UniProt Q6DE08).
T2 construct: equipped at the N-terminal position with a GST tag (amino acids 60-361); GST (N, cleaved yes); made in house; host or cells: E. coli BL21 (DE3)
T2 sequence (Q6DE08 60-361): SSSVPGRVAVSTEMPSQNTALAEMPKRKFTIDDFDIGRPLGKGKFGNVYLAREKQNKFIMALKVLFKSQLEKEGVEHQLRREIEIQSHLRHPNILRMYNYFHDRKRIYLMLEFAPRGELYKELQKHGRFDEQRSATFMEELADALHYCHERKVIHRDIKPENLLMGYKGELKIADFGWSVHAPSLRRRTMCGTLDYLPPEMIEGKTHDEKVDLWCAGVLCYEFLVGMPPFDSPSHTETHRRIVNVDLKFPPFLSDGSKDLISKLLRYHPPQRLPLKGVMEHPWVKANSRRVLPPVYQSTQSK
T2 sequence (O13024 790-847 partner): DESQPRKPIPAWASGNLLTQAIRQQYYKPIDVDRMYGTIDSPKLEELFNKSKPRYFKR
Nature of the assay: Aurora-B kinase assay (radioactive enzyme inhibition). The class given is biochemical.
Conditions: not given
The source says:
A radioactive enzyme inhibition assay was developed using E. coli-expressed recombinant Xenopus laevis Aurora B wild-type protein equipped at the N-terminal position with a GST tag (amino acids 60-361) in a complex with Xenopus laevis INCENP (amino acids 790-847), which is obtained from bacteria and purified. In equivalent manner a Xenopus laevis Aurora B mutant (G96V) in a complex with Xenopus laevis INCENP^790-847 may also be used.
The coding sequence for Aurora-B^60-361 from Xenopus laevis is cloned into a modified version of pGEX-6T (Amersham Biotech) via BamHI and SalI cutting sites. The vector contains two cloning cassettes which are separated by a ribosomal binding site, allowing bi-cistronic expression. In this configuration Xenopus laevis Aurora B is expressed by the first cassette, and the Xenopus laevis INCENP^790-847 is expressed by the second cassette. The resulting vector is pAUB-IN^847.
First of all the E. coli strain BL21 (DE3) is co-transformed with pUBS520 helper plasmid and pAUB-IN^847, after which protein expression is induced using 0.3 mM IPTG at an OD600 of 0.45-0.7. The expression is then continued for approx. 12-16 h at 23-25° C. with agitation.
The bacteria are then removed by centrifuging and the pellet is lysed in lysis buffer (50 mM Tris/Cl pH 7.6, 300 mM NaCl, 1 mM DTT, 1 mM EDTA, 5% glycerol, Roche Complete Protease Inhibitor tablets) using ultrasound, using 20-30 mL lysis buffer per litre of E. coli culture. The lysed material is freed from debris by centrifugation (12000 rpm, 45-60 min, JA20 rotor). The supernatant is incubated with […] of equilibrated GST Sepharose Fast Flow (Amersham Biosciences) per litre of E. coli culture for 4-5 h at 4° C. Then the column material is washed with 30 volumes of lysis buffer and then equilibrated with 30 volumes of cleavage buffer (50 mM Tris/Cl pH 7.6, 150 mM NaCl, 1 mM DTT, 1 mM EDTA). To cleave the GST tag from Aurora B, 10 units of Prescission Protease (Amersham Biosciences) are used per milligram of substrate and the mixture is incubated for 16 h at 4° C. The supernatant which contains the cleavage product is loaded onto a 6 mL Resource Q column (Amersham Biosciences) equilibrated with ion exchange buffer (50 mM Tris/Cl pH 7.6, 150 mM NaCl, 1 mM DTT, 1 mM EDTA). The Aurora B/INCENP complex is caught as it flows through, then concentrated and loaded onto a Superdex 200 size exclusion chromatography (SEC) column equilibrated with SEC buffer (10 mM Tris/Cl pH 7.6, 150 mM NaCl, 1 mM DTT, 1 mM EDTA). Fractions which contain the AuroraB/INCENP complex are collected and concentrated using Vivaspin concentrators (molecular weight exclusion 3000-5000 Da) to a final concentration of 12 mg/mL. Aliquots (e.g. 240 ng/μL) for kinase assays are transferred from this stock solution into freezing buffer (50 mM Tris/Cl pH 8.0, 150 mM NaCl, 0.1 mM EDTA, 0.03% Brij-35, 10% glycerol, 1 mM DTT) and stored at −80° C.
Test substances are placed in a polypropylene dish (96 wells, Greiner #655 201), in order to cover a concentration frame of 10 μM-0.0001 μM. The final concentration of DMSO in the assay is 5%. 30 μL of protein mix (50 mM Tris/Cl pH 7.5, 25 mM MgCl2, 25 mM NaCl, 167 μM ATP, 10 ng Xenopus laevis Aurora B/INCENP complex in freezing buffer) are pipetted into the 10 μl of test substance provided in 25% DMSO and this is incubated for 15 min at RT. Then 10 μL of peptide mix (100 mM Tris/Cl pH 7.5, 50 mM MgCl2, 50 mM NaCl, 5 μM NaF, 5 μM DTT, 1 μCi gamma-P33-ATP [Amersham], 50 μM substrate peptide [biotin-EPLERRLSLVPDS or multimers thereof, or biotin-EPLERRLSLVPKM or multimers thereof, or biotin-[…]]) are added. The reaction is incubated for 75 min (ambient temperature) and stopped by the addition of 180 μL of 6.4% trichloroacetic acid and incubated for 20 min on ice. […]
As to `CCN([C@@H]1CCCC[C@H]1Nc1nc(Nc2ccc(C(=O)NC3CCN(C)CC3)cc2OC)ncc1C(F)(F)F)S(C)(=O)=O` [Example I-91], the concentration for half-maximal inhibition (IC50) was determined as 264000 pM. Regarding `COc1cc(C(=O)NC2CCN(C)CC2)ccc1Nc1ncc(C(F)(F)F)c(N[C@@H]2CCCC[C@H]2N(C)S(C)(=O)=O)n1` [Example I-90, 4-{4-[(1R,2R)-2-(methanesulphonyl-methyl-amino)-cyclohexylamino]-5-trifluoromethyl-pyrimidin-2-ylamino}-3-methoxy-N-(1-methyl-piperidin-4-yl)-benzamide], the IC50 was 280000 pM.
